Drawing on patent US8455000B2, “Resorbable polymer compositions for use in medicine, dentistry, and surgery” (Syncera Inc., priority 2006, dated 2013), this text covers solubility in water for 1 molecule.

Read-outs that look alike come from different tables or passages of the source.

The conditions of data set [1]: in words; cited from earlier work.
Data set [2] in a line: Retention and release of dyes from PE-PEG matrix into phosphate buffered saline. The format is physicochemical. Particulars: dye only, tube 10. The procedure:
Method: C50 PE-PEG16 was blended with PLURONIC™ L44 in a ratio of 7:3 w/w as described in Example 3. Rose Bengal (100 mg) and SR24 (100 mg) were mixed with 5 g aliquots of molten PE-PEG and PE-PEG/poloxamer blend, and maintained at 110° C. with mixing until the dye was fully dissolved.
Ten small (6 ml) glass test tubes were prepared as shown in Tables 5-6, Tubes 4-7 contained 0.5 g of the PE-PEG and PE-PEG/polymer samples mixed with dye, tubes 2, 3, 8 and 9 contained 0.5 g PE-PEG and PE-PEG/polymer samples (without dye) and 10 mg of dye added separately (after the PE-PEG or blend had solidified), tubes 1 and 10 contained only the dye, as controls.
Each glass test tube was affixed to the inside of a 50 ml polypropylene centrifuge tube with a silicone adhesive. Fifty ml of phosphate buffered saline was added to each of the tubes, and they were rocked gently for six days. At appropriate time points, the concentration of dye in the buffer was measured using a spectrophotometer. The SR24 dye was measured at 516 nm, the Rose Bengal concentration was estimated from the maximal absorption λmax from 540 nm to 560 nm.

For `Cc1ccccc1/N=N/c1ccc(/N=N/c2c(O)ccc3ccccc23)c(C)c1` [SR24, Solvent Red 24], the solubility in water result is reported as “negligible solubility” in data set [1] and “zero solubility” in data set [2].
